Assay results taken from patent US20240199546A1, “INHIBITORS OF SOLUTE CARRIER FAMILY 6A MEMBER 19 (SLC6A19) AND METHODS OF USE THEREOF” (Maze Therapeutics, Inc., priority 2022, published 2024).
pIC50: −log10 of the molar value.

Biological target: T1, human SLC6A19 and TMEM27 (Homo sapiens, UniProt Q695T7)
T1 construct: expressed in transfected cells
T1 sequence (Q695T7 1-634): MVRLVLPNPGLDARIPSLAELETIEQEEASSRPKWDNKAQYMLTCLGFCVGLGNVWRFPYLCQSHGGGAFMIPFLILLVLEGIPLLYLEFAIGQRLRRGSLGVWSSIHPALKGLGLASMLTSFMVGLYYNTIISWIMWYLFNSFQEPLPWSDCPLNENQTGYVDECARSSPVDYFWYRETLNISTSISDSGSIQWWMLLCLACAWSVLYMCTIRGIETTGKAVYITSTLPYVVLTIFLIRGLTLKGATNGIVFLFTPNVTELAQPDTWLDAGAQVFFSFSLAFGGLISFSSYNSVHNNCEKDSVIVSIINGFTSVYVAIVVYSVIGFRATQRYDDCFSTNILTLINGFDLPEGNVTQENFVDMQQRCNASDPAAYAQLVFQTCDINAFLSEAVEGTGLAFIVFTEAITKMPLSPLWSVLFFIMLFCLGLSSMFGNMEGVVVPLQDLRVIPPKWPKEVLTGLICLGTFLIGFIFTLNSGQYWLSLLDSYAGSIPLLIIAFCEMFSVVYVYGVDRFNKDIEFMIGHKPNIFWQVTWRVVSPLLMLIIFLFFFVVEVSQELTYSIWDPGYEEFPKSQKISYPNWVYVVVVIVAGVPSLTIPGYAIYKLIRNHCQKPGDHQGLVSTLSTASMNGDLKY
T1 sequence (Q9HBJ8 15-222 partner): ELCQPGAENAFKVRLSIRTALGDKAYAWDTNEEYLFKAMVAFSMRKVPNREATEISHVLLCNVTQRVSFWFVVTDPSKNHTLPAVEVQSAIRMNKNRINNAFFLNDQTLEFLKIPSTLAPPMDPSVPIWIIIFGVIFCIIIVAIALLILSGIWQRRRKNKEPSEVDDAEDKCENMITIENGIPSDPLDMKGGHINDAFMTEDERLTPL
Test: 13C6,15N-isoleucine uptake in CHO cells with doxycycline-inducible expression of human SLC6A19 and TMEM27, RapidFire mass spectrometry (Example B-2)
Type: cell-based
Conditions: read-out: SLC6A19_RapidFire Uptake Assay IC50
Protocol: Assay ready vials of CHO cells with doxycycline inducible expression of human SLC6A19 and TMEM27 were thawed, plated in T175 flasks containing DMEM/F12 media, 10% FBS, 1% Penicillin-Streptomycin, 1× UltraGlutamate, 1 mM Sodium Pyruvate, Sodium Bicarbonate (7.5 mL of 7.5% solution in 500 mL media final), 5 μg/mL Blasticidin, 150 μg/mL Hygromycin B Gold, and 500 μg/mL G418, and incubated (humidified, 37° C. with 5% CO2) for 48 hours. Media was then removed, flasks were washed with 20 mL of DPBS, and 5 mL of TrypLE™ Express was added to each flask to initiate cell dissociation. After 5 minutes, 10 mL of cell culture media was added to each flask and mixed. The cell suspension was collected and centrifuged for 5 minutes at 200×g. The supernatant was removed, and the pellet was resuspended in 10 mL of cell culture media. Resuspended cells were counted using a Vi-Cell. 30 μL/well (20,000 cells/well) of cell suspension was added to Poly-D-Lysine 384-well black/clear plates. Plates were incubated (humidified, 37° C. with 5% CO2) for 24 hours. To induce expression of human SLC6A19 and TMEM27, 10 μL of assay culture media containing 4 μg/mL doxycycline was added to each well. Assay plates were then incubated (humidified, 37° C. with 5% CO2) overnight. After incubation, the media was removed, and wells were washed 3 times with 40 μL of warmed DPBS. Next, 10 μL of warmed assay buffer (137 mM NaCl, 5 mM KCl, 1 mM CaCl2), 1 mM MgCl2, 10 mM HEPES, 10 mM glucose, pH 7.2) was added to each well. 10 μL/well of test compound or positive control compound to define 0% activity (i.e., 100% inhibition), was then added into each well. All compounds were plated in a duplicate 10-point dilution series that consisted of 2-fold dilutions. The plates were incubated (humidified, 37° C. with 5% C2) with compound for 20 minutes. Afterwards, 20 μL/well of 2 mM 13C6,15N-1-isoleucine was added to each well and plates were incubated again (humidified, 37° C. with 5% C02) for another 20 minutes. Assay buffer was then removed, and plates were washed. 70 μL/well of stop solution (75% acetonitrile, 25% HPLC grade water, 250 nM 1-leucine-1-13C (RapidFire standard)) was added to each well. The plates were sealed and then placed in a −20° C. freezer for 20 minutes. The plates were thawed at room temperature for 20 minutes and then centrifuge for 20 minutes at 3000 rpm. Using an ABSciex API4000 mass spectrometer, processed samples were loaded onto the graphitic carbon SPE-column. The time for aspiration, load/wash, elution and re-equilibration time was 600, 1500, 3000 and 500 milliseconds, respectively. Peak areas were calculated using RapidFire Integrator software.

pIC50	Compound
6.71	O=C(NCc1cc2cc(Cl)c(OCc3ccon3)cc2[nH]1)N1CCCC1 [Compound 112, N-((5-chloro-6-(isoxazol-3-ylmethoxy)-1H-indol-2-yl)methyl)pyrrolidine-1-carboxamide]
6.31	O=C(NCc1cc2cc(Cl)c(OCc3cncs3)cc2[nH]1)N1CCCC1 [Compound 119, N-((5-chloro-6-(thiazol-5-ylmethoxy)-1H-indol-2-yl)methyl) pyrrolidine-1-carboxamide]
6.51	Cc1c(CNC(=O)C2(C)CC2)[nH]c2cc(OCc3ccon3)ccc12 [Compound 155, N-((6-(isoxazol-3-ylmethoxy)-3-methyl-1H-indol-2-yl)methyl)-1-methylcyclopropane-1-carboxamide]
6.70	Cc1c(CNC(=O)C2(C)CC2)[nH]c2cc(OCc3ccccc3)ccc12 [Compound 156, N-((6-(benzyloxy)-3-methyl-1H-indol-2-yl)methyl)-1-methylcyclopropane-1-carboxamide]
7.37	CC1(C(=O)NCc2[nH]c3cc(OCc4ccon4)ccc3c2Cl)CC1 [Compound 157, N-((3-chloro-6-(isoxazol-3-ylmethoxy)-1H-indol-2-yl)methyl)-1-methylcyclopropane-1-carboxamide]
6.73	CC1(C(=O)NCc2[nH]c3cc(OCc4ccccc4)ccc3c2Cl)CC1 [Compound 158, N-((6-(benzyloxy)-3-chloro-1H-indol-2-yl)methyl)-1-methylcyclopropane-1-carboxamide]
6.31	CC1(C(=O)NCc2cc3cc(Cl)c(Cc4ccon4)cc3[nH]2)CC1 [Compound 159, N-((5-chloro-6-(isoxazol-3-ylmethyl)-1H-indol-2-yl)methyl)-1-methylcyclopropanecarboxamide]
< 4.30	Cc1cc(Cc2ccc3cc(CNC(=O)C4(C)CC4)[nH]c3c2)no1 [Compound 160, 1-methyl-N-((6-((5-methylisoxazol-3-yl)methyl)-1H-indol-2-yl)methyl)cyclopropanecarboxamide]
7.17	CC1(C(=O)NCc2cc3cc(Cl)c(OCc4cocn4)cc3[nH]2)CC1 [Compound 161, N-((5-chloro-6-(oxazol-4-ylmethoxy)-1H-indol-2-yl)methyl)-1-methylcyclopropane-1-carboxamide]
4.79	CNC(=O)COc1ccc2cc(CNC(=O)C3(C)CC3)[nH]c2c1 [Compound 162, 1-methyl-N-((6-(2-(methylamino)-2-oxoethoxy)-1H-indol-2-yl)methyl)cyclopropane-1-carboxamide]
6.04	CC1(C(=O)NCc2cc3ccc(OCc4cnco4)cc3[nH]2)CC1 [Compound 163, 1-methyl-N-((6-(oxazol-5-ylmethoxy)-1H-indol-2-yl)methyl)cyclopropane-1-carboxamide]
7.01	CC1(C(=O)NCc2cc3ccc(OCc4cscn4)cc3[nH]2)CC1 [Compound 164, 1-methyl-N-((6-(thiazol-4-ylmethoxy)-1H-indol-2-yl)methyl)cyclopropane-1-carboxamide]
5.66	Cc1nnc(COc2ccc3cc(CNC(=O)C4(C)CC4)[nH]c3c2)s1 [Compound 165, 1-methyl-N-((6-((5-methyl-1,3,4-thiadiazol-2-yl)methoxy)-1H-indol-2-yl)methyl)cyclopropane-1-carboxamide]
7.32	CC1(C(=O)NCc2cc3ccc(OCc4cnsn4)cc3[nH]2)CC1 [Compound 166, N-((6-((1,2,5-thiadiazol-3-yl)methoxy)-1H-indol-2-yl)methyl)-1-methylcyclopropane-1-carboxamide]
5.12	Cc1nnc(COc2ccc3cc(CNC(=O)C4(C)CC4)[nH]c3c2)o1 [Compound 167, 1-methyl-N-((6-((5-methyl-1,3,4-oxadiazol-2-yl)methoxy)-1H-indol-2-yl)methyl)cyclopropane-1-carboxamide]
5.13	Cn1cc(COc2ccc3cc(CNC(=O)C4(C)CC4)[nH]c3c2)nn1 [Compound 168, 1-methyl-N-((6-((1-methyl-1H-1,2,3-triazol-4-yl)methoxy)-1H-indol-2-yl)methyl)cyclopropane-1-carboxamide]
7.08	Cc1noc(COc2ccc3cc(CNC(=O)C4(C)CC4)[nH]c3c2)n1 [Compound 169, 1-methyl-N-((6-((3-methyl-1,2,4-oxadiazol-5-yl)methoxy)-1H-indol-2-yl)methyl)cyclopropane-1-carboxamide]
6.73	CC1(C(=O)NCc2cc3ccc(OCc4csnn4)cc3[nH]2)CC1 [Compound 170, N-((6-((1,2,3-thiadiazol-4-yl)methoxy)-1H-indol-2-yl)methyl)-1-methylcyclopropane-1-carboxamide]
5.76	CC1(C(=O)NCc2cc3ccc(OCc4nncs4)cc3[nH]2)CC1 [Compound 171, N-((6-((1,3,4-thiadiazol-2-yl)methoxy)-1H-indol-2-yl)methyl)-1-methylcyclopropane-1-carboxamide]
6.03	Cn1ncc(COc2ccc3cc(CNC(=O)C4(C)CC4)[nH]c3c2)n1 [Compound 173, 1-methyl-N-((6-((2-methyl-2H-1,2,3-triazol-4-yl)methoxy)-1H-indol-2-yl)methyl)cyclopropane-1-carboxamide]
5.68	Cn1nnc(COc2ccc3cc(CNC(=O)C4(C)CC4)[nH]c3c2)n1 [Compound 174, 1-methyl-N-((6-((2-methyl-2H-tetrazol-5-yl)methoxy)-1H-indol-2-yl)methyl)cyclopropane-1-carboxamide]
7.42	Cc1cc(COc2cc3[nH]c(CNC(=O)C4(C)CC4)cc3cc2Cl)on1 [Compound 175, N-((5-chloro-6-((3-methylisoxazol-5-yl)methoxy)-1H-indol-2-yl)methyl)-1-methylcyclopropane-1-carboxamide]
6.28	Cc1ncc(COc2cc3[nH]c(CNC(=O)C4(C)CC4)cc3cc2Cl)s1 [Compound 176, N-((5-chloro-6-((2-methylthiazol-5-yl)methoxy)-1H-indol-2-yl)methyl)-1-methylcyclopropane-1-carboxamide]
6.29	Cc1ncc(COc2ccc3cc(CNC(=O)C4(C)CC4)[nH]c3c2)s1 [Compound 178, 1-methyl-N-((6-((2-methylthiazol-5-yl)methoxy)-1H-indol-2-yl)methyl)cyclopropane-1-carboxamide]
5.85	Cc1nc(COc2ccc3cc(CNC(=O)C4(C)CC4)[nH]c3c2)cs1 [Compound 179, 1-methyl-N-((6-((2-methylthiazol-4-yl)methoxy)-1H-indol-2-yl)methyl)cyclopropane-1-carboxamide]
6.25	Cc1nc(COc2ccc3cc(CNC(=O)C4(C)CC4)[nH]c3c2)co1 [Compound 180, 1-methyl-N-((6-((2-methyloxazol-4-yl)methoxy)-1H-indol-2-yl)methyl)cyclopropane-1-carboxamide]
6.74	Cc1cc(COc2ccc3cc(CNC(=O)C4(C)CC4)[nH]c3c2)on1 [Compound 181, 1-methyl-N-((6-((3-methylisoxazol-5-yl)methoxy)-1H-indol-2-yl)methyl)cyclopropane-1-carboxamide]
